Laboratory results published in BigSolDB 2.1.

CC(CCC(=O)O)(c1ccc(O)cc1)c1ccc(O)cc1
Conditions	solubility (mole fraction)
in acetone, 288.15 K	0.125
in acetone, 291.15 K	0.127
in acetone, 294.15 K	0.13
in acetone, 297.15 K	0.134
in acetone, 300.15 K	0.137
in acetone, 303.15 K	0.14
in acetone, 306.15 K	0.143
in acetone, 309.15 K	0.146
in acetone, 312.15 K	0.15
in acetone, 315.15 K	0.153
in acetone, 318.15 K	0.157
in acetonitrile, 288.15 K	0.00804
in acetonitrile, 291.15 K	0.00871
in acetonitrile, 294.15 K	0.00973
in acetonitrile, 297.15 K	0.0106
in acetonitrile, 300.15 K	0.0116
in acetonitrile, 303.15 K	0.013
in acetonitrile, 306.15 K	0.0144
in acetonitrile, 309.15 K	0.0162
in acetonitrile, 312.15 K	0.0181
in acetonitrile, 315.15 K	0.0208
in acetonitrile, 318.15 K	0.0238
in ethanol, 288.15 K	0.0989
in ethanol, 291.15 K	0.103
in ethanol, 294.15 K	0.107
in ethanol, 297.15 K	0.11
in ethanol, 300.15 K	0.114
in ethanol, 303.15 K	0.118
in ethanol, 306.15 K	0.123
in ethanol, 309.15 K	0.129
in ethanol, 312.15 K	0.136
in ethanol, 315.15 K	0.142
in ethanol, 318.15 K	0.148
in ethyl acetate, 288.15 K	0.0498
in ethyl acetate, 291.15 K	0.0509
in ethyl acetate, 294.15 K	0.052
in ethyl acetate, 297.15 K	0.0533
in ethyl acetate, 300.15 K	0.0553
in ethyl acetate, 303.15 K	0.0576
in ethyl acetate, 306.15 K	0.0604
in ethyl acetate, 309.15 K	0.0637
in ethyl acetate, 312.15 K	0.0667
in ethyl acetate, 315.15 K	0.0696
in ethyl acetate, 318.15 K	0.0727
in ethyl formate, 288.15 K	0.0113
in ethyl formate, 291.15 K	0.0116
in ethyl formate, 294.15 K	0.012
in ethyl formate, 297.15 K	0.0127
in ethyl formate, 300.15 K	0.0136
in ethyl formate, 303.15 K	0.0146
in ethyl formate, 306.15 K	0.0155
in ethyl formate, 309.15 K	0.0166
in ethyl formate, 312.15 K	0.0183
in ethyl formate, 315.15 K	0.0202
in ethyl formate, 318.15 K	0.0221
in isopropanol, 288.15 K	0.063
in isopropanol, 291.15 K	0.0631
in isopropanol, 294.15 K	0.0634
in isopropanol, 297.15 K	0.0637
in isopropanol, 300.15 K	0.0651
in isopropanol, 303.15 K	0.0665
in isopropanol, 306.15 K	0.0687
in isopropanol, 309.15 K	0.0718
in isopropanol, 312.15 K	0.077
in isopropanol, 315.15 K	0.0829
in isopropanol, 318.15 K	0.0914
in methanol, 288.15 K	0.096
in methanol, 291.15 K	0.0983
in methanol, 294.15 K	0.101
in methanol, 297.15 K	0.104
in methanol, 300.15 K	0.106
in methanol, 303.15 K	0.11
in methanol, 306.15 K	0.114
in methanol, 309.15 K	0.119
in methanol, 312.15 K	0.123
in methanol, 315.15 K	0.127
in methanol, 318.15 K	0.131
in methyl acetate, 288.15 K	0.0453
in methyl acetate, 291.15 K	0.0477
in methyl acetate, 294.15 K	0.0497
in methyl acetate, 297.15 K	0.0526
in methyl acetate, 300.15 K	0.0559
in methyl acetate, 303.15 K	0.0594
in methyl acetate, 306.15 K	0.063
in methyl acetate, 309.15 K	0.0668
in methyl acetate, 312.15 K	0.0713
in methyl acetate, 315.15 K	0.0775
in methyl acetate, 318.15 K	0.085
in n-butanol, 288.15 K	0.0712
in n-butanol, 291.15 K	0.0763
in n-butanol, 294.15 K	0.0814
in n-butanol, 297.15 K	0.0867
in n-butanol, 300.15 K	0.0919
in n-butanol, 303.15 K	0.0971
in n-butanol, 306.15 K	0.102
in n-butanol, 309.15 K	0.107
in n-butanol, 312.15 K	0.112
in n-butanol, 315.15 K	0.116
in n-butanol, 318.15 K	0.12
in n-butyl acetate, 288.15 K	0.0117
in n-butyl acetate, 291.15 K	0.0143
in n-butyl acetate, 294.15 K	0.0169
in n-butyl acetate, 297.15 K	0.0199
in n-butyl acetate, 300.15 K	0.0227
in n-butyl acetate, 303.15 K	0.0258
in n-butyl acetate, 306.15 K	0.029
in n-butyl acetate, 309.15 K	0.0325
in n-butyl acetate, 312.15 K	0.0356
in n-butyl acetate, 315.15 K	0.039
in n-butyl acetate, 318.15 K	0.0428
in n-propanol, 288.15 K	0.0352
in n-propanol, 291.15 K	0.0384
in n-propanol, 294.15 K	0.0416
in n-propanol, 297.15 K	0.046
in n-propanol, 300.15 K	0.0502
in n-propanol, 303.15 K	0.0541
in n-propanol, 306.15 K	0.0588
in n-propanol, 309.15 K	0.0631
in n-propanol, 312.15 K	0.0671
in n-propanol, 315.15 K	0.0732
in n-propanol, 318.15 K	0.0803
in n-propyl acetate, 288.15 K	0.0291
in n-propyl acetate, 291.15 K	0.0298
in n-propyl acetate, 294.15 K	0.0309
in n-propyl acetate, 297.15 K	0.032
in n-propyl acetate, 300.15 K	0.0336
in n-propyl acetate, 303.15 K	0.0358
in n-propyl acetate, 306.15 K	0.0379
in n-propyl acetate, 309.15 K	0.0403
in n-propyl acetate, 312.15 K	0.0433
in n-propyl acetate, 315.15 K	0.0472
in n-propyl acetate, 318.15 K	0.0507
in sec-butanol, 288.15 K	0.0823
in sec-butanol, 291.15 K	0.0876
in sec-butanol, 294.15 K	0.0926
in sec-butanol, 297.15 K	0.0978
in sec-butanol, 300.15 K	0.103
in sec-butanol, 303.15 K	0.11
in sec-butanol, 306.15 K	0.117
in sec-butanol, 309.15 K	0.124
in sec-butanol, 312.15 K	0.129
in sec-butanol, 315.15 K	0.135
in sec-butanol, 318.15 K	0.14
